The values that follow come from patent US10308644B2, “Heterocyclic compounds as immunomodulators” (Incyte Corporation, priority 2016, dated 2019).

pIC50: −log10 of the molar value.

For this assay, the target named is PD-1/PD-L1 (Homo sapiens (Human), UniProt Q9NZQ7). Briefly: PD-1/PD-L1 Homogeneous Time-Resolved Fluorescence (HTRF) Binding Assay. As to conditions: recombinant human PD-1 (3 nM) and PD-L1 (10 nM), 25° C., PBS pH 7.4. As for the experimental part:
Example A. PD-1/PD-L1 Homogeneous Time-Resolved Fluorescence (HTRF) Binding Assay
The assays were conducted in a standard black 384-well polystyrene plate with a final volume of 20 μL. Inhibitors were first serially diluted in DMSO and then added to the plate wells before the addition of other reaction components. The final concentration of DMSO in the assay was 1%. The assays were carried out at 25° C. in the PBS buffer (pH 7.4) with 0.05% Tween-20 and 0.1% BSA. Recombinant human PD-L1 protein (19-238) with a His-tag at the C-terminus was purchased from AcroBiosystems (PD1-H5229). Recombinant human PD-1 protein (25-167) with Fc tag at the C-terminus was also purchased from AcroBiosystems (PD1-H5257). PD-L1 and PD-1 proteins were diluted in the assay buffer and 10 μL was added to the plate well. Plates were centrifuged and proteins were preincubated with inhibitors for 40 minutes. The incubation was followed by the addition of 10 μL of HTRF detection buffer supplemented with Europium cryptate-labeled anti-human IgG (PerkinElmer-AD0212) specific for Fc and anti-His antibody conjugated to SureLight®-Allophycocyanin (APC, PerkinElmer-AD0059H). After centrifugation, the plate was incubated at 25° C. for 60 min. before reading on a PHERAstar FS plate reader (665 nm/620 nm ratio). Final concentrations in the assay were—3 nM PD1, 10 nM PD-L1, 1 nM europium anti-human IgG and 20 nM anti-His-Allophycocyanin. IC50 determination was performed by fitting the curve of percent control activity versus the log of the inhibitor concentration using the GraphPad Prism 5.0 software.

Chain of PD-1/PD-L1 (Q9NZQ7 19-238): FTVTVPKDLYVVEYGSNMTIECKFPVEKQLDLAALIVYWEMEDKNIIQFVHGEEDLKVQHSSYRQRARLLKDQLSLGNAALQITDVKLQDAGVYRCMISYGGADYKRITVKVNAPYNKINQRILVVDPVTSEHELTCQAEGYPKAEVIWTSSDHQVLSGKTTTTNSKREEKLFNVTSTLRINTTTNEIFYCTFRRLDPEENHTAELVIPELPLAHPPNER

What is called pIC50 is the IC50 on a negative log10 scale, so that one unit is a factor of ten. Take `Cc1c(Nc2nccc3cc(C4CCCN4)cnc23)cccc1-c1cccc(-c2nc3cc(CN4CC[C@@H](C(=O)O)C4)cc(C#N)c3o2)c1C` (single isomer, unassigned) [Example 98]: the pIC50 is at least 8.00.
As to `Cc1c(Nc2nccc3cc(C4CCCN4)cnc23)cccc1-c1cccc(-c2nc3cc(CN4CC[C@@H](C(=O)O)C4)cc(C#N)c3o2)c1C` (single isomer, unassigned) [Example 99], the pIC50 was at least 8.00.
Regarding `Cc1c(-c2nc3cc(CN4CC[C@@H](O)C4)cc(C#N)c3o2)cccc1-c1cccc(NC(=O)c2nc3c(n2C)CCN(CC2CCC(C)(C(=O)O)CC2)C3)c1Cl` (single isomer, unassigned; peak 1) [Example 268], the pIC50 is at least 8.00.
On to `Cc1c(-c2nc3cc(CN4CC[C@@H](O)C4)cc(C#N)c3o2)cccc1-c1cccc(NC(=O)c2nc3c(n2C)CCN(CC2CCC(C)(C(=O)O)CC2)C3)c1Cl` (single isomer, unassigned; peak 2) [Example 269], for which the pIC50 was at least 8.00.
`Cc1c(-c2nc3cc(CN4CCCC[C@H]4C(=O)O)cc(Cl)c3o2)cccc1-c1cccc(NC(=O)c2ccc(CNCCO)cn2)c1Cl` [Example 1, (S)-1-((7-chloro-2-(2′-chloro-3′-(5-(((2-hydroxyethyl)amino)methyl)picolinamido)-2-methyl-[1,1′-biphenyl]-3-yl)benzo[d]oxazol-5-yl)methyl)piperidine-2-carboxylic acid]: the pIC50 is at least 8.00.
Then `Cc1c(-c2nc3cc(CN4CCCC[C@H]4C(=O)O)cc(Cl)c3o2)cccc1-c1cccc(NC(=O)c2ccc(CN3CC[C@H](O)C3)cn2)c1Cl` [Example 2, (S)-1-((7-chloro-2-(2′-chloro-3′-(5-(((S)-3-hydroxypyrrolidin-1-yl)methyl)picolinamido)-2-methyl-[1,1′-biphenyl]-3-yl)benzo[d]oxazol-5-yl)methyl)piperidine-2-carboxylic acid], with at least 8.00; and `Cc1c(Nc2nccc3cc(CNCCO)cnc23)cccc1-c1cccc(-c2nc3cc(CN4CCCC[C@H]4C(=O)O)cc(Cl)c3o2)c1C` [Example 3, (S)-1-((7-chloro-2-(3′-((3-(((2-hydroxyethyl)amino)methyl)-1,7-naphthyridin-8-yl)amino)-2,2′-dimethyl-[1,1′-biphenyl]-3-yl)benzo[d]oxazol-5-yl)methyl)piperidine-2-carboxylic acid], with at least 8.00; and `Cc1c(Nc2nccc3cc(CNCC(C)(C)O)cnc23)cccc1-c1cccc(-c2nc3cc(CN4CCCC[C@H]4C(=O)O)cc(Cl)c3o2)c1C` [Example 4, (S)-1-((7-chloro-2-(3′-((3-(((2-hydroxy-2-methylpropyl)amino)methyl)-1,7-naphthyridin-8-yl)amino)-2,2′-dimethyl-[1,1′-biphenyl]-3-yl)benzo[d]oxazol-5-yl)methyl)piperidine-2-carboxylic acid], with at least 8.00.
In the case of `Cc1c(Nc2nccc3cc(CN4CC[C@H](O)C4)cnc23)cccc1-c1cccc(-c2nc3cc(CN4CCCC[C@H]4C(=O)O)cc(Cl)c3o2)c1C` [Example 5, (S)-1-((7-chloro-2-(3′-((3-(((S)-3-hydroxypyrrolidin-1-yl)methyl)-1,7-naphthyridin-8-yl)amino)-2,2′-dimethyl-[1,1′-biphenyl]-3-yl)benzo[d]oxazol-5-yl)methyl)piperidine-2-carboxylic acid], the pIC50 was at least 8.00.
The same measure for `Cc1c(Nc2nccc3cc(CNCCO)cnc23)cccc1-c1cccc(-c2nc3cc(CNCCC(=O)O)cc(Cl)c3o2)c1C` [Example 6, 3-(((7-chloro-2-(3′-((3-(((2-hydroxyethyl)amino)methyl)-1,7-naphthyridin-8-yl)amino)-2,2′-dimethyl-[1,1′-biphenyl]-3-yl)benzo[d]oxazol-5-yl)methyl)amino)propanoic acid]: at least 8.00.
As for `Cc1c(-c2nc3cc(CN4CCCC[C@H]4C(=O)O)c(OCC#N)cc3o2)cccc1-c1cccc(-c2nc3cc(CN4CCCC[C@H]4C(=O)O)c(OCC#N)cc3o2)c1C` [Example 7, (2S,2′S)-1,1′-(((2,2′-dimethyl-[1,1′-biphenyl]-3,3′-diyl)bis(6-(cyanomethoxy)benzo[d]oxazole-2,5-diyl))bis(methylene))bis(piperidine-2-carboxylic acid)], the pIC50 was at least 8.00.
For the compound `Cc1c(-c2nc3cc(CN4CCCC[C@H]4C(=O)O)cc(Cl)c3o2)cccc1-c1cccc(NC(=O)c2nc3c(s2)CN(C)CC3)c1Cl` [Example 8, (S)-1-((7-chloro-2-(2′-chloro-2-methyl-3′-(5-methyl-4,5,6,7-tetrahydrothiazolo[5,4-c]pyridine-2-carboxamido)-[1,1′-biphenyl]-3-yl)benzo[d]oxazol-5-yl)methyl)piperidine-2-carboxylic acid], the pIC50 is at least 8.00.
Then `Cc1c(-c2nc3cc(CNCCO)cc(Cl)c3o2)cccc1-c1cccc(NC(=O)c2nc3c(s2)CN(C)CC3)c1Cl` [Example 9, N-(2-chloro-3′-(7-chloro-5-(((2-hydroxyethyl)amino)methyl)benzo[d]oxazol-2-yl)-2′-methyl-[1,1′-biphenyl]-3-yl)-5-methyl-4,5,6,7-tetrahydrothiazolo[5,4-c]pyridine-2-carboxamide], with at least 8.00; and `Cc1c(-c2nc3cc(CN4CC[C@H](O)C4)cc(Cl)c3o2)cccc1-c1cccc(-c2nc3cc(CN4CC[C@H](C(=O)O)C4)cc(Cl)c3o2)c1C` [Example 10, (S)-1-((7-chloro-2-(3′-(7-chloro-5-(((S)-3-hydroxypyrrolidin-1-yl)methyl)benzo[d]oxazol-2-yl)-2,2′-dimethylbiphenyl-3-yl)benzo[d]oxazol-5-yl)methyl)pyrrolidine-3-carboxylic acid], with at least 8.00.
The same measure for `Cc1c(Nc2nccc3nccnc23)cccc1-c1cccc(-c2nc3cc(CN4CC[C@@H](C(=O)O)C4)cc(Cl)c3o2)c1C` [Example 11, (R)-1-((7-chloro-2-(2,2′-dimethyl-3′-(pyrido[4,3-b]pyrazin-5-ylamino)biphenyl-3-yl)benzo[d]oxazol-5-yl)methyl)pyrrolidine-3-carboxylic acid]: at least 8.00; for `Cc1c(Nc2nccc3nccnc23)cccc1-c1cccc(-c2nc3cc(CN4CC[C@@H](C(=O)O)C4)cc(C#N)c3o2)c1C` [Example 12, (R)-1-((7-cyano-2-(2,2′-dimethyl-3′-(pyrido[4,3-b]pyrazin-5-ylamino)biphenyl-3-yl)benzo[d]oxazol-5-yl)methyl)pyrrolidine-3-carboxylic acid]: at least 8.00.
For the compound `Cc1c(Nc2ncnc3cccnc23)cccc1-c1cccc(-c2nc3cc(CN4CC[C@@H](C(=O)O)C4)cc(C#N)c3o2)c1C` [Example 13, (R)-1-((7-cyano-2-(2,2′-dimethyl-3′-(pyrido[3,2-d]pyrimidin-4-ylamino)biphenyl-3-yl)benzo[d]oxazol-5-yl)methyl)pyrrolidine-3-carboxylic acid], the pIC50 was at least 8.00.
Consider `Cc1c(-c2nc3cc(CN4CC[C@@H](C(=O)O)C4)cc(C#N)c3o2)cccc1-c1cccc(Nc2nccc3nccnc23)c1Cl` [Example 14, (R)-1-((2-(2′-chloro-2-methyl-3′-(pyrido[4,3-b]pyrazin-5-ylamino)biphenyl-3-yl)-7-cyanobenzo[d]oxazol-5-yl)methyl)pyrrolidine-3-carboxylic acid], for which the pIC50 was at least 8.00.
As for `Cc1c(-c2nc3cc(CN4CC[C@@H](C(=O)O)C4)cc(C#N)c3o2)cccc1-c1cccc(Nc2cncc3nccnc23)c1Cl` [Example 15, (R)-1-((2-(2′-chloro-2-methyl-3′-(pyrido[3,4-b]pyrazin-8-ylamino)biphenyl-3-yl)-7-cyanobenzo[d]oxazol-5-yl)methyl)pyrrolidine-3-carboxylic acid], the pIC50 is at least 8.00.
Take `Cc1c(Nc2nccc3cc(CN4CC[C@H](O)C4)cnc23)cccc1-c1cccc(-c2nc3cc(CN4CC[C@@H](C(=O)O)C4)cc(Cl)c3o2)c1C` [Example 16, (R)-1-((7-chloro-2-(3′-(3-(((S)-3-hydroxypyrrolidin-1-yl)methyl)-1,7-naphthyridin-8-ylamino)-2,2′-dimethylbiphenyl-3-yl)benzo[d]oxazol-5-yl)methyl)pyrrolidine-3-carboxylic acid]: the pIC50 was at least 8.00.
The same measure for `Cc1c(Nc2nccc3cc(CN4CC[C@H](O)C4)cnc23)cccc1-c1cccc(-c2nc3cc(CN4CC[C@H](C(=O)O)C4)cc(Cl)c3o2)c1C` [Example 17, (S)-1-((7-chloro-2-(3′-(3-(((S)-3-hydroxypyrrolidin-1-yl)methyl)-1,7-naphthyridin-8-ylamino)-2,2′-dimethylbiphenyl-3-yl)benzo[d]oxazol-5-yl)methyl)pyrrolidine-3-carboxylic acid]: at least 8.00; for `Cc1c(Nc2nccc3cc(CN4CC[C@@H](O)C4)cnc23)cccc1-c1cccc(-c2nc3cc(CN4CC[C@@H](C(=O)O)C4)cc(Cl)c3o2)c1C` [Example 18, (R)-1-((7-chloro-2-(3′-(3-(((R)-3-hydroxypyrrolidin-1-yl)methyl)-1,7-naphthyridin-8-ylamino)-2,2′-dimethylbiphenyl-3-yl)benzo[d]oxazol-5-yl)methyl)pyrrolidine-3-carboxylic acid]: at least 8.00.
